Experimental data: PubChem BioAssay (NCI)
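Dose response: 5 concentrations. Exposure: 48 h. Format: 96-well plates. Endpoint: linear interpolation; highest concentration if not reached. GI50 = concentration required for 50% inhibition of growth. TGI marks complete inhibition of growth.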

Experiments:
Assay in all cases: NCI tumour cell line growth inhibition, 48 h
MDA-MB-231 breast = tested on: MDA-MB-231 breast
OVCAR-3 ovarian = tested on: OVCAR-3 ovarian
HOP-92 NSCLC = tested on: HOP-92 NSCLC
PC-3 prostate = tested on: PC-3 prostate
SR leukemia = tested on: SR leukemia
MDA-N = tested on: MDA-N
K-562 leukemia = tested on: K-562 leukemia
RPMI-8226 leukemia = tested on: RPMI-8226 leukemia
HS 578T breast = tested on: HS 578T breast

Compound | TGI (MDA-MB-231 breast) [µM] | TGI (OVCAR-3 ovarian) [µM] | TGI (HOP-92 NSCLC) [µM] | TGI (PC-3 prostate) [µM] | TGI (SR leukemia) [µM] | TGI (MDA-N) [µM] | TGI (K-562 leukemia) [µM] | TGI (RPMI-8226 leukemia) [µM] | TGI (HS 578T breast) [µM] | GI50 (MDA-MB-231 breast) [µM] | GI50 (OVCAR-3 ovarian) [µM] | GI50 (HOP-92 NSCLC) [µM] | GI50 (PC-3 prostate) [µM] | GI50 (SR leukemia) [µM] | GI50 (K-562 leukemia) [µM] | GI50 (HS 578T breast) [µM]
CN(C)c1nc(N(C)C)nc(N(C)C23CC4CC(CC(C4)C2)C3)n1 | 77.4 | > 100 | 55.8 | 72 | > 100 | 53.7 | > 100 | 74.9 | – | – | – | – | – | – | – | –
Clc1ccc(Cc2nc3ccccc3nc2-c2cccc(Br)c2)cc1 | 14.1 | 5.76 | 1.36 | 4.88 | – | 4.19 | 8.46 | 3.81 | 3.57 | – | – | – | – | – | – | –
Cc1cc(=O)n2nc(SCc3ccccc3)sc2n1 | > 100 | > 100 | > 100 | > 100 | > 100 | > 100 | > 100 | > 100 | > 100 | – | – | – | – | – | – | –
Nc1nc(-c2ccccc2N=NN2CCCC2)nc2ccccc12 | 3.63 | 4.35 | 21.3 | 15.4 | 2.38 | – | 10.2 | 6.46 | 18 | – | – | – | – | – | – | –
CC(=O)O[C@@H]1C[C@@]23C[C@@]24CC[C@H](OC2OCC(O)C(O)C2O)C(C)(C)[C@@H]4CC=C3[C@]2(C)C[C@@H]3OC4(C[C@@H](C)[C@@H]3[C@@]12C)OC(O)[C@@]1(C)O[C@@H]41 (stereo not given in full) | 44 | 34.5 | > 100 | 61.1 | – | > 100 | > 100 | 47.1 | > 100 | – | – | – | – | – | – | –
CCOP(=O)(OCC)C(Nc1cccc(F)c1)c1ccccc1 (stereo not given) | > 100 | > 100 | > 100 | > 100 | > 100 | > 100 | > 100 | > 100 | > 100 | – | – | – | – | – | – | –
Cc1cc(/C=C\c2ccc3ccccc3[n+]2C)c(O)c2ncccc12 | 1.9 | 0.569 | 4.48 | 7.58 | > 100 | – | > 100 | – | 7.5 | 0.259 | 0.176 | 0.0995 | 0.855 | 0.168 | 0.169 | 0.681
C/C=C\C(CC(=O)NCCc1cn(C(=O)OCc2ccccc2)c2ccccc12)CC(=O)OC (stereo not given) | > 100 | > 100 | > 100 | > 100 | – | > 100 | > 100 | > 100 | > 100 | – | – | – | – | – | – | –
CCNc1ccc2c(c1)Cc1ccccc1-2 | > 100 | > 100 | 82.4 | > 100 | > 100 | – | > 100 | > 100 | > 100 | – | – | – | – | – | – | –
COc1nc(N(C)C)nc2c1n(C)c[n+]2C | > 100 | > 100 | > 100 | > 100 | – | > 100 | > 100 | > 100 | > 100 | – | – | – | – | – | – | –
Cc1cc(O)c(C(C)C)cc1SC#N | 37.9 | 28.8 | 25.3 | 34.4 | – | – | 55 | 33.7 | 67.4 | – | – | – | – | – | – | –
O=C(CSCC(=O)N/N=C/c1cccs1)N/N=C/c1cccs1 | > 100 | > 100 | > 100 | > 100 | – | – | > 100 | > 100 | > 100 | – | – | – | – | – | – | –
COc1ccc2c(c1)C(N)=C(c1ccccc1)C2=O | > 100 | > 100 | > 100 | > 100 | > 100 | > 100 | – | > 100 | 56.3 | – | – | – | – | – | – | –
CN(C)/N=C/c1cn(C)c(=O)n(C)c1=O | > 100 | > 100 | > 100 | > 100 | – | > 100 | > 100 | > 100 | > 100 | – | – | – | – | – | – | –
O=[N+]([O-])c1ccc(S[C@@H]2[C@H]3c4c(-c5ccccc5)[nH]c(-c5ccccc5)c4[C@@H]2C[C@H]3Cl)cc1 | > 100 | 35.8 | > 100 | > 100 | > 100 | 18.6 | – | – | 72.2 | – | – | – | – | – | – | –
N/N=C1/C2CN3CCN(C2)CC1(c1ccc([N+](=O)[O-])cc1)C3 | > 100 | > 100 | – | > 100 | > 100 | > 100 | > 100 | > 100 | > 100 | – | – | – | – | – | – | –
COC1OC(Cc2nnc(C)o2)C(OCc2ccccc2)C(OCc2ccccc2)C1OCc1ccccc1 (stereo not given) | > 100 | 60.6 | > 100 | – | 29.6 | – | 98.5 | > 100 | > 100 | – | – | – | – | – | – | –
Cc1ccc(C(=O)N/N=C(\N=Nc2cccc(Cl)c2)c2ccc(N(CCC#N)CCC#N)cc2C)cc1 | > 100 | > 100 | > 100 | > 100 | > 100 | > 100 | > 100 | > 100 | – | – | – | – | – | – | – | –
CCOC(=O)c1c(CN2CCNCC2)nc2ccccc2c1-c1ccccc1 | 29.3 | 31.8 | 17.7 | 27.3 | – | 23.3 | 27.2 | 32.5 | 35.9 | – | – | – | – | – | – | –
N#CC(C#N)=C1C(C#N)=C(N)NC12OCCO2 | > 100 | – | > 100 | > 100 | > 100 | > 100 | > 100 | > 100 | > 100 | – | – | – | – | – | – | –
CCOC(=O)C(=[N+]=[N-])C(=O)Nc1nn2nnnc2c2ccccc12 | > 100 | > 100 | > 100 | > 100 | > 100 | > 100 | > 100 | > 100 | – | – | – | – | – | – | – | –
COc1cc2c(cc1OCCCC(=O)Nc1cc(C(=O)Nc3cc(C(=O)Nc4cc(C(=O)NCCCN(C)C)n(C)n4)n(C)n3)n(C)n1)N=CC1CCCN1C2=O (stereo not given) | 55.5 | > 100 | > 100 | > 100 | – | – | > 100 | > 100 | 79.7 | – | – | – | – | – | – | –
N=c1oc2ccc3ccccc3c2cc1C(N)=O | > 100 | > 100 | > 100 | > 100 | > 100 | > 100 | – | > 100 | 54.6 | – | – | – | – | – | – | –
CC1(C)OCC(C(O)C2OC(C)(C)OC2C=O)O1 (stereo not given) | > 100 | > 100 | – | > 100 | > 100 | > 100 | > 100 | > 100 | > 100 | – | – | – | – | – | – | –
